Experimental data taken from patent US20090005250A1, “Substituted 2,4-diamino-1,3,5-triazines, processes for their use as herbicides and crop growth regulators” (Bayer CropScience AG, priority 2006, published 2009).

Legend:
[1] = test system: harmful plants such as Sinapis alba, Echinochloa crus-galli, Lolium multiflorum, Stellaria media, Cyperus iria, Amaranthus retroflexus, Setaria viridis, Avena …; assay: Post-emergence herbicidal action (greenhouse pot test); assay type: in vivo, mono- and dicotyledonous weeds; conditions: application rate of 500 g and less of active substance per hectare; treated at three-leaf stage; scored visually after approx. 3 to 4 weeks
Method: Seeds or rhizome pieces of mono- and dicotyledonous weeds were placed in sandy loam in plastic pots, covered with soil and grown in a greenhouse under good growth conditions. Three weeks after the sowing, the test plants were treated at the three-leaf stage. The inventive compounds formulated as spray powders or as emulsion concentrates were sprayed onto the green plant parts in various dosages with an application rate of from 600 to 800 l/ha of water (converted). After the test plants had been left to stand in the greenhouse under optimal growth conditions for approx. 3 to 4 weeks, the action of the preparations was scored visually in comparison to untreated controls. The inventive compositions also had good post-emergence herbicidal activity against a wide spectrum of economically important gramineous and broadleaf weeds. For example, examples no.

[2] = test system: harmful plants such as Stellaria media, Lolium multiflorum, Amaranthus retroflexus, Sinapis alba, Avena sativa and Setaria viridis; assay: Pre-emergence herbicidal action (greenhouse pot test); assay type: in vivo, mono- and dicotyledonous weed plants; conditions: application rate of 500 g or less of active substance per hectare; scored visually after 3 to 4 weeks in comparison to untreated controls
Source text: Seeds or rhizome pieces of mono- and dicotyledonous weed plants were placed in sandy loam in plastic pots and covered with soil. The inventive compounds, which have been formulated in the form of wettable powders or emulsion concentrates, were then applied to the surface of the covering soil as an aqueous suspension or emulsion in different dosages with an application rate of from 600 to 800 l/ha of water (converted). After the treatment, the pots were placed in a greenhouse and kept under good growth conditions for the weeds. The plant or emergence damage is scored visually after the emergence of the test plants after an experiment time of from 3 to 4 weeks in comparison to untreated controls. […] For example, the examples no.

Row | SMILES | herbicidal action, post-emergence method [1] | herbicidal action, pre-emergence method [2]
1 | Nc1nc(NC(C2CC2)C2CC2)nc(C2(F)CC2)n1 [Example 1-572] | very good herbicidal action | very good herbicidal action
2 | CC(=O)Nc1nc(NC(C2CC2)C2CC2)nc(C(C)(C)F)n1 [Example 2-199] | very good herbicidal action | very good herbicidal action
3 | CCC(F)c1nc(N)nc(NC(C2CCC2)C2CCC2)n1 (stereo not shown) [Example 1-420] | very good herbicidal action | very good herbicidal action
4 | CC(C)(F)c1nc(N)nc(NC(C2CCC2)C2CCC2)n1 [Example 1-499] | – | very good herbicidal action
5 | CC(C)(F)c1nc(N)nc(NC2CCC3CC32)n1 (stereo not shown) [Example 7-79] | very good herbicidal action | very good herbicidal action
6 | CC(F)c1nc(N)nc(NC(C(C)C)C2CC2)n1 (stereo not shown) [Example 1-317] | very good herbicidal action | very good herbicidal action
7 | CCC(F)c1nc(N)nc(NC(C2CC2)C2CC2)n1 (stereo not shown) [Example 1-414] | very good herbicidal action | –
8 | Nc1nc(NC(C2CC2)C2CC2)nc(C2CC2)n1 [Example 1-256] | very good herbicidal action | –
9 | CC(C)C(Nc1nc(N)nc(C(C)(C)F)n1)C1CC1 (stereo not shown) [Example 1-475] | very good herbicidal action | very good herbicidal action
10 | Nc1nc(NC(C2CC2)C2CC2)nc(C(F)F)n1 [Example 1-651] | very good herbicidal action | very good herbicidal action
11 | CC(F)c1nc(N)nc(NC(C2CC2)C2CC2)n1 (stereo not shown) [Example 1-335] | very good herbicidal action | very good herbicidal action
12 | CN(C)C=Nc1nc(NC(C2CC2)C2CC2)nc(C(C)(C)F)n1 [Example 5-201] | very good herbicidal action | very good herbicidal action
13 | Nc1ncnc(NC(C2CC2)C2CC2)n1 [Example 1-19] | very good herbicidal action | very good herbicidal action
14 | CC(C)(F)c1nc(N=CN2CCOCC2)nc(NC(C2CC2)C2CC2)n1 [Example 6-199] | very good herbicidal action | very good herbicidal action
15 | Cc1nc(N)nc(NC(C2CC2)C2CC2)n1 [Example 1-98] | – | very good herbicidal action
16 | CC(C)(F)c1nc(N)nc(NC(C2CC2)C2CC2)n1 [Example 1-493] | very good herbicidal action | very good herbicidal action
